Test systems include NCI-H522 lung; MOLT-4 leukemia; HT29 colon; SNB-75 CNS; HOP-92 NSCLC; UACC-257 melanoma; SR leukemia; SF-268 CNS; SK-MEL-2 melanoma; OVCAR-5 ovarian.
Holding throughout (assay): inhibition of tumour cell growth, NCI panel, 48 h

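Each compound was tested at five concentrations against cells in 96-well plates for 48 hours. The concentration for 50% growth inhibition is given as GI50. TGI denotes the concentration required for complete inhibition of growth.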

As to `COC(C(O)CO)C(O)C(O)C(=O)NNc1ccccc1` (stereo not drawn), the TGI in the experiment with NCI-H522 lung, with MOLT-4 leukemia, in the experiment with HT29 colon, with SNB-75 CNS, in the experiment with HOP-92 NSCLC and in the experiment with UACC-257 melanoma was over 100 µM in each case. Also, the TGI in the experiment with SR leukemia, in the experiment on SF-268 CNS, in the experiment on SK-MEL-2 melanoma and in the experiment with OVCAR-5 ovarian was over 100 µM each time.
Turning to `CN1C/C=C\CCOc2cccc(c2)-c2ccnc(n2)Nc2cccc(c2)C1`, the GI50 with NCI-H522 lung is 0.0708 µM; in the experiment on MOLT-4 leukemia it was 0.0371 µM; with HT29 colon, 0.0497 µM; in the experiment with SNB-75 CNS, 0.0545 µM; in the experiment with HOP-92 NSCLC, 0.0349 µM; with UACC-257 melanoma, 0.0722 µM. Moreover, the GI50 is 0.0196 µM in the experiment on SR leukemia, 0.0561 µM in the experiment with SF-268 CNS, 0.0397 µM in the experiment with SK-MEL-2 melanoma and 0.0369 µM with OVCAR-5 ovarian. Also, the TGI in the experiment on NCI-H522 lung was 0.334 µM; in the experiment on MOLT-4 leukemia, 0.874 µM; in the experiment on HT29 colon, 0.976 µM; in the experiment on SNB-75 CNS, 0.169 µM; in the experiment with HOP-92 NSCLC it was 0.227 µM; with UACC-257 melanoma, 0.371 µM. Moreover, the TGI in the experiment on SR leukemia came to 0.116 µM; in the experiment on SF-268 CNS, 0.548 µM; with SK-MEL-2 melanoma, 0.132 µM.
As for `COC1=C(C)C(=O)c2c(c(COC(N)=O)c3n2CC2C3N2C)C1=O` (stereo not drawn), the TGI with NCI-H522 lung is 0.0304 µM; in the experiment on MOLT-4 leukemia, 0.104 µM; in the experiment with HT29 colon, 0.314 µM; with SNB-75 CNS, under 0.0446 µM; with HOP-92 NSCLC it was 0.453 µM; in the experiment on UACC-257 melanoma, 0.0641 µM. The TGI in the experiment with SR leukemia is under 0.0354 µM; with SF-268 CNS, 0.6 µM; in the experiment on SK-MEL-2 melanoma, 0.109 µM; in the experiment on OVCAR-5 ovarian, 0.324 µM.
In the case of `c1cc(CNC23CC4CC(CC(C4)C2)C3)cc(C[N+](Cc2cccc(CNC34CC5CC(CC(C5)C3)C4)c2)(Cc2cccc(CNC34CC5CC(CC(C5)C3)C4)c2)Cc2cccc(CNC34CC5CC(CC(C5)C3)C4)c2)c1` (stereo not drawn), the GI50 was 3.06 µM in the experiment with NCI-H522 lung; 5.52 µM in the experiment on MOLT-4 leukemia; 3.58 µM in the experiment with HT29 colon; 9.78 µM in the experiment with SNB-75 CNS; 4.74 µM in the experiment on HOP-92 NSCLC; 12.9 µM in the experiment on UACC-257 melanoma. In addition, the GI50 with SR leukemia was 6.22 µM; with SF-268 CNS, 6.39 µM; in the experiment with SK-MEL-2 melanoma it was 4.44 µM; in the experiment with OVCAR-5 ovarian, 4.09 µM. Also, the TGI in the experiment on NCI-H522 lung came to 6.49 µM; in the experiment on MOLT-4 leukemia, 17.1 µM; with HT29 colon it was 11.8 µM; with SNB-75 CNS, 40.7 µM; with HOP-92 NSCLC, 12.8 µM; in the experiment with UACC-257 melanoma, 45.3 µM. In addition, the TGI is 209 µM in the experiment with SR leukemia, 22.6 µM in the experiment on SF-268 CNS, 13.4 µM with SK-MEL-2 melanoma and 11.5 µM in the experiment on OVCAR-5 ovarian.
As for `COC(=O)C1=CNC=C(C(=O)OC)C1C1=CC(=O)C(C)=CC1=O`, the GI50 in the experiment on NCI-H522 lung was 19.8 µM; in the experiment on MOLT-4 leukemia, 2.16 µM; in the experiment with HT29 colon it was 29.9 µM; in the experiment with SNB-75 CNS, 16 µM; in the experiment with HOP-92 NSCLC, 4.65 µM; in the experiment on UACC-257 melanoma it was 16.4 µM. The GI50 with SR leukemia is 9.37 µM; with SF-268 CNS it was 9.82 µM; with SK-MEL-2 melanoma, 16.6 µM; with OVCAR-5 ovarian it was 17.7 µM. In addition, the TGI in the experiment with NCI-H522 lung was 47.2 µM; in the experiment on MOLT-4 leukemia, 5.9 µM; in the experiment on HT29 colon, over 100 µM; in the experiment with SNB-75 CNS, 42 µM; in the experiment on HOP-92 NSCLC, 15.6 µM; in the experiment with UACC-257 melanoma, 31.1 µM. Also, the TGI amounted to 43.5 µM in the experiment with SR leukemia, 24.6 µM with SF-268 CNS, 30.9 µM in the experiment with SK-MEL-2 melanoma and 31.7 µM with OVCAR-5 ovarian.
As to `COc1nc2ccccc2cc1-c1nc2c(cnn2-c2ccc(Br)cc2)c(=O)[nH]1`, the GI50 is 0.0153 µM in the experiment on NCI-H522 lung; 0.0879 µM with MOLT-4 leukemia; 0.0191 µM in the experiment with HT29 colon; 0.0161 µM in the experiment on SNB-75 CNS; 0.127 µM in the experiment with HOP-92 NSCLC; 6.77 µM in the experiment with UACC-257 melanoma. The GI50 in the experiment with SR leukemia was 0.0116 µM; with SF-268 CNS, 0.131 µM; with SK-MEL-2 melanoma, 0.0946 µM; in the experiment with OVCAR-5 ovarian, 0.798 µM. Also, the TGI with MOLT-4 leukemia was over 50 µM; in the experiment with HT29 colon, over 50 µM; with SNB-75 CNS, 1.46 µM; in the experiment with HOP-92 NSCLC, over 28.3 µM; in the experiment with UACC-257 melanoma, over 50 µM; in the experiment on SR leukemia, 5.41 µM. The TGI is over 50 µM in the experiment on SF-268 CNS, 9.22 µM in the experiment on SK-MEL-2 melanoma and over 50 µM with OVCAR-5 ovarian.
`COc1cc2c(cc1OC)C(CC(=O)NN=C(C)C)NCC2` (stereo not drawn): the TGI in the experiment with NCI-H522 lung, with MOLT-4 leukemia, in the experiment on HT29 colon, with SNB-75 CNS, in the experiment with HOP-92 NSCLC and in the experiment with UACC-257 melanoma was over 100 µM throughout. Moreover, the TGI in the experiment on SR leukemia, in the experiment on SF-268 CNS, in the experiment on SK-MEL-2 melanoma and in the experiment on OVCAR-5 ovarian was over 100 µM throughout.
`Nn1c(=O)n(Cc2ccccc2)n(-c2ccccc2)c1=O`: the TGI in the experiment with NCI-H522 lung, in the experiment on MOLT-4 leukemia, in the experiment with HT29 colon, in the experiment on SNB-75 CNS, in the experiment with HOP-92 NSCLC and in the experiment with UACC-257 melanoma was over 100 µM in each case. Moreover, the TGI in the experiment on SR leukemia, with SF-268 CNS, with SK-MEL-2 melanoma and with OVCAR-5 ovarian was over 100 µM in each case.
Take `COc1ccccc1CNCCCN1C(=O)c2ccc3c4c(ccc(c24)C1=O)C(=O)N(CCCOCCCCOCCCN)C3=O`: the GI50 with NCI-H522 lung was 0.802 µM; in the experiment on MOLT-4 leukemia, 0.538 µM; in the experiment with HT29 colon it was 0.402 µM; in the experiment with SNB-75 CNS, 1.79 µM; in the experiment on HOP-92 NSCLC, 2.1 µM; in the experiment on UACC-257 melanoma it was 0.272 µM. Moreover, the GI50 with SR leukemia is 0.348 µM; in the experiment on SF-268 CNS it was 1.42 µM; with SK-MEL-2 melanoma, 1.83 µM; in the experiment on OVCAR-5 ovarian, 1.88 µM. The TGI turned out to be 2.18 µM with NCI-H522 lung; 2.55 µM with MOLT-4 leukemia; 1.29 µM with HT29 colon; 3.6 µM in the experiment with SNB-75 CNS; 4.61 µM in the experiment on HOP-92 NSCLC; 0.892 µM in the experiment on UACC-257 melanoma. For the same compound, the TGI came out at 3.87 µM with SR leukemia, 3.63 µM with SF-268 CNS, 4.04 µM with SK-MEL-2 melanoma and 3.61 µM in the experiment on OVCAR-5 ovarian.

For the origin of these results see PubChem BioAssay (NCI).
